Reference: ChEMBL document CHEMBL1126833, “3-Substituted, 3-(4-pyridinylmethyl)-1,3-dihydro-1-phenyl-2H-indol-2-ones as acetylcholine release enhancers: synthesis and SAR” (J Med Chem, 1993)

What was measured:
Type in all cases: functional
Rattus norvegicus [1] = organism: Rattus norvegicus; test: Ability to enhance stimulated release of AcCh from striatum region of rat brain
Rattus norvegicus [2] = organism: Rattus norvegicus; test: Tested for rat passive avoidance hypoxia induced amnesia (no hypoxia)
Rattus norvegicus [3] = test: Tested for rat passive avoidance hypoxia induced amnesia at 0.1 mg/kg administered subcutaneously; conditions: route subcutaneous
Rattus norvegicus [4] = test: Tested for rat passive avoidance hypoxia induced amnesia at 0.3 mg/kg administered subcutaneously.; conditions: route subcutaneous
Rattus norvegicus [5] = test: Tested for rat passive avoidance hypoxia induced amnesia at 1.0 mg/kg administered subcutaneously; conditions: route subcutaneous
Rattus norvegicus [6] = test: Tested for rat passive avoidance hypoxia induced amnesia at 10.0 mg/kg administered subcutaneously (p<0.025); conditions: route subcutaneous
Rattus norvegicus [7] = test: Tested for rat passive avoidance hypoxia induced amnesia at 100 mg/kg administered subcutaneously; conditions: route subcutaneous
Rattus norvegicus [8] = test: Tested for rat passive avoidance hypoxia induced amnesia at 30.0 mg/kg administered subcutaneously (p<0.05); conditions: route subcutaneous
Rattus norvegicus [9] = test: Tested for rat passive avoidance hypoxia induced amnesia at 3.0 mg/kg administered subcutaneously (p<0.025); conditions: route subcutaneous

SMILES | Release (Rattus norvegicus [1]) [%] | further results
O=C1N(c2ccccc2)c2ccccc2C1(O)Cc1ccncc1 (centres undefined) | 8 | 
O=C1N(c2ccccc2)c2ccccc2C1(CCCO)Cc1ccncc1 (centres undefined) | 27 | 
Cl.N#CCCCCC1(Cc2ccncc2)C(=O)N(c2ccccc2)c2ccccc21 (centres undefined) | 133 | 
Cl.NC(=O)CCCC1(Cc2ccncc2)C(=O)N(c2ccccc2)c2ccccc21 (centres undefined) | 26 | 
COC(=O)CCC1(Cc2ccncc2)C(=O)N(c2ccccc2)c2ccccc21.Cl (centres undefined) | 51 | 
CCOC(=O)CCCCC1(Cc2ccncc2)C(=O)N(c2ccccc2)c2ccccc21.Cl (centres undefined) | 3 | 
Cl.O=C(O)CC1(Cc2ccncc2)C(=O)N(c2ccccc2)c2ccccc21 (centres undefined) | -2 | 
CCCS(=O)(=O)CCCCC1(Cc2ccncc2)C(=O)N(c2ccccc2)c2ccc(Cl)cc21.Cl (centres undefined) | 8 | 
CCCSCCCCC1(Cc2ccncc2)C(=O)N(c2ccccc2)c2ccccc21.Cl (centres undefined) | 24 | 
CC(=O)CCCC1(Cc2ccncc2)C(=O)N(c2ccccc2)c2ccccc21.Cl (centres undefined) | 18 | 
Cl.N#CCCCCCCC1(Cc2ccncc2)C(=O)N(c2ccccc2)c2ccccc21 (centres undefined) | 19 | 
Cl.N#CCCCC1(Cc2ccncc2)C(=O)N(c2ccccc2)c2ccccc21 (centres undefined) | 74 | 
CC(=O)OCCCCC1(Cc2ccncc2)C(=O)N(c2ccccc2)c2ccccc21.Cl (centres undefined) | 27 | 
Cl.O=C1N(c2ccccc2)c2ccccc2C1(CCO)Cc1ccncc1 (centres undefined) | 12 | 
Cl.O=C(CCC1(Cc2ccncc2)C(=O)N(c2ccccc2)c2ccccc21)c1ccc(F)cc1 (centres undefined) | 11 | 
Cl.N#CCCCCCC1(Cc2ccncc2)C(=O)N(c2ccccc2)c2ccccc21 (centres undefined) | 74 | 

SMILES | Release (Rattus norvegicus [1]) [%] | further results
CN(C)CCC1(Cc2ccncc2)C(=O)N(c2ccccc2)c2ccccc21.Cl.Cl (centres undefined) | 3 | 
CCOC(=O)CCC1(Cc2ccncc2)C(=O)N(c2ccccc2)c2ccccc21.Cl (centres undefined) | 57 | 
Cl.O=C(CCCC1(Cc2ccncc2)C(=O)N(c2ccccc2)c2ccccc21)c1ccc(F)cc1 (centres undefined) | 29 | 
Cl.N#CCC1(Cc2ccncc2)C(=O)N(c2ccccc2)c2ccccc21 (centres undefined) | 11 | 
CCOC(=O)/C=C/CC1(Cc2ccncc2)C(=O)N(c2ccccc2)c2ccccc21.Cl (centres undefined) | 41 | 
Cl.O=C(O)CCCC1(Cc2ccncc2)C(=O)N(c2ccccc2)c2ccccc21 (centres undefined) | 0 | 
Cl.O=C1N(c2ccccc2)c2ccccc2C1(CCCCO)Cc1ccncc1 (centres undefined) | 29 | 
CCOCCCCC1(Cc2ccncc2)C(=O)N(c2ccccc2)c2ccccc21.Cl (centres undefined) | 17 | 
CCOC(=O)CC1(Cc2ccncc2)C(=O)N(c2ccccc2)c2ccccc21.Cl (centres undefined) | 21 | 
O=C1C(Cc2ccncc2)c2ccccc2N1c1ccccc1 (centres undefined) | 0 | 
CCCCCCC1(Cc2ccncc2)C(=O)N(c2ccccc2)c2ccccc21 (centres undefined) | 6 | 
CCOC(=O)CCCC1(Cc2ccncc2)C(=O)N(c2ccccc2)c2ccccc21.Cl (racemic) | 109 | 
CCOC(=O)CCCC1(Cc2ccncc2)C(=O)N(c2ccccc2)c2ccccc21.Cl (single isomer, unassigned; (-)) | 3 | 
CCOC(=O)CCCC1(Cc2ccncc2)C(=O)N(c2ccccc2)c2ccccc21.Cl (stereo in doubt; 8) | 99 | Median retension latency (Rattus norvegicus [2]): 300; Median retension latency (Rattus norvegicus [3]): 79.5; Median retension latency (Rattus norvegicus [4]): 37.5; Median retension latency (Rattus norvegicus [5]): 89.5; Median retension latency (Rattus norvegicus [6]): 136; Median retension latency (Rattus norvegicus [7]): 34; Median retension latency (Rattus norvegicus [8]): 201; Median retension latency (Rattus norvegicus [9]): 112
O=C1N(c2ccccc2)c2ccccc2C1(Cc1ccncc1)Cc1ccncc1 [LINOPIRDINE] | 100 | 
